From ChEMBL document CHEMBL1201862, “PubChem BioAssay data set” (2004)
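These data come from cells grown in 96-well plates and exposed to compound for 48 hours at five concentrations. GI50 is the concentration that inhibits growth by half.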 Calls of active or inactive are those of the source. No stated cut-off is given here; in the data, active = GI50 up to about 1.1 µM and inactive = higher.

What was measured:
Assay in all cases: growth of human tumour cells (NCI), 48 h
[1] = tested on: A549
[2] = tested on: CCRF-CEM
[3] = tested on: EKVX
[4] = tested on: HCT-116
[5] = tested on: IGROV-1
[6] = tested on: KM12
[7] = tested on: NCI-H23
[8] = tested on: OVCAR-3
[9] = tested on: OVCAR-4
[10] = tested on: OVCAR-5
[11] = tested on: RPMI-8226
[12] = tested on: SF-268
[13] = tested on: SF-539
[14] = tested on: SK-MEL-5
[15] = tested on: SK-OV-3
[16] = tested on: SN12C
[17] = tested on: SNB-19
[18] = tested on: SW-620
[19] = tested on: TK-10
[20] = tested on: UACC-62

Measured: GI50

O=c1c(C(c2ccc(Cl)cc2)c2c(O)c3ccccc3n(-c3ccccc3)c2=O)c(O)c2ccccc2n1-c1ccccc1
inactive: [1] 15.2 µM | [2] 18.7 µM | [3] 17.2 µM | [4] 24.8 µM | [5] > 100 µM | [6] 68.4 µM | [7] 11.1 µM | [8] 29 µM | [9] 32.1 µM | [10] > 100 µM | [11] 14.6 µM | [12] 16.9 µM | [13] 19.1 µM | [14] 28.7 µM | [15] 61.8 µM | [16] 19.1 µM | [17] 17.7 µM | [18] 34 µM | [19] 67.8 µM | [20] 13.3 µM

N#Cc1c(NC(=S)NC(=O)c2ccccc2)nc2c(c1-c1ccccc1)CCC2
inactive: [1] > 100 µM | [2] > 100 µM | [3] 24.5 µM | [4] > 100 µM | [5] > 100 µM | [6] > 100 µM | [7] > 100 µM | [8] > 100 µM | [9] > 100 µM | [10] > 100 µM | [11] > 100 µM | [12] > 100 µM | [13] > 100 µM | [14] 73.3 µM | [15] > 100 µM | [16] 78.2 µM | [17] > 100 µM | [18] > 100 µM | [19] 91 µM | [20] > 100 µM
